The values that follow come from ChEMBL document CHEMBL1130525, “Robustaflavone, a naturally occurring biflavanoid, is a potent non-nucleoside inhibitor of hepatitis B virus replication in vitro” (Bioorg Med Chem Lett, 1997).

Test [1] relates to HepG2. As to the kind of experiment: Effective concentration necessary to decrease extracellular Hepatitis B virus DNA levels by 50% in human hepatoblastoma cell line (2.2.15 cells) in vitro. Type of test: functional, cell-based.
For test [2], the system named is HepG2. Kind of test: Effective concentration necessary to decrease extracellular Hepatitis B virus DNA levels by 90% in human hepatoblastoma cell line (2.2.15 cells) in vitro. Type of test: functional.
For test [3], the system named is HepG2. Kind of test: Cytotoxicity towards human hepatoblastoma cell line (2.2.15 cells) measured by inhibition of neutral red dye uptake in vitro. Type of test: functional, cell-based.
A short description of test [4]: In vitro selectivity index measured for IC50 to that of EC90 was determined in human hepatoblastoma cell line (2.2.15 cells). Type of test: functional.
In test [5] the test system is HepG2. Kind of test: Relative level of HBV viral antigen (HBcAg) following treatment of human hepatoblastoma cell line (2.2.15 cells) with the compound. Type of test: functional.
For test [6], the system named is HepG2. Kind of test: Relative level of HBV viral antigen (HBeAg) following treatment of human hepatoblastoma cell line (2.2.15 cells) with the compound. Type of test: functional.
For test [7], the system named is HepG2. Kind of test: Relative level of HBV viral antigen (HBsAg) following treatment of human hepatoblastoma cell line (2.2.15 cells) with the compound. Type of test: functional.
For test [8], the system named is HepG2. As to the kind of experiment: Relative level of HBV viral mRNA (2.1 kb mRNA) following treatment of human hepatoblastoma cell line (2.2.15 cells) with the compound. Type of test: functional.
The subject of test [9] is HepG2. Kind of test: Relative level of HBV viral mRNA (3.6 kb mRNA) following treatment of human hepatoblastoma cell line (2.2.15 cells) with the compound. Type of test: functional.
For test [10], the system named is HepG2. Kind of test: Relative level of HBV viral DNA (Extracellular) following treatment of human hepatoblastoma cell line (2.2.15 cells) with the compound. Type of test: functional.
Test [11] deals with HepG2. Kind of test: Relative level of HBV viral DNA (Intracellular) following treatment of human hepatoblastoma cell line (2.2.15 cells) with the compound. Type of test: functional.

On to `Nc1ccn([C@@H]2CS[C@H](CO)O2)c(=O)n1` [LAMIVUDINE], for which, in the test on HepG2 [1], the EC50 (commonly the concentration giving half of the maximal effect) was 0.038 µM. In addition, in the test on HepG2 [2], the EC90 – broadly, the concentration needed for an effect of 90% – was 0.16 µM. In addition, the IC50 (usually the concentration that gives 50% inhibition) in the test on HepG2 [3] came to 1790 µM. Besides, in test [4], the Ratio is 11200.

For the compound `Nc1nc(O)c2ncn(CCC(CO)CO)c2n1` [PENCICLOVIR], in the test on HepG2 [1], the response was half-maximal at 0.19 µM (EC50). In addition, the EC90 in the test with HepG2 [2] worked out at 0.92 µM. In the test with HepG2 [3], this compound returned an IC50 of 433 µM. In addition, the Ratio in test [4] was found to be 471.

For the compound `O=c1cc(-c2ccc(O)c(-c3c(O)cc4oc(-c5ccc(O)cc5)cc(=O)c4c3O)c2)oc2cc(O)cc(O)c12` [ROBUSTAFLAVONE], the Relative level is 138 with HepG2 [5]; 86 in the test with HepG2 [6]; 97 in the test with HepG2 [7]; 106 with HepG2 [8]; 93 with HepG2 [9]; 1 with HepG2 [10]. In addition, the Relative level in the test with HepG2 [11] is 5. Besides, the midpoint of the response in the test on HepG2 [1], the EC50, lay at 0.25 µM. This compound also had an EC90 in the test with HepG2 [2] of 2.2 µM. For the same compound, the midpoint of inhibition in the test with HepG2 [3], the IC50, lay at 337 µM. The Ratio in [4] is reported as 153.

Regarding `Nc1ccn([C@H]2CC[C@@H](CO)O2)c(=O)n1` [ZALCITABINE], the Relative level is 91 with HepG2 [5]; 88 in the test on HepG2 [6]; 90 with HepG2 [7]; 87 in the test with HepG2 [8]; 94 in the test on HepG2 [9]; 1 in the test on HepG2 [10]. In addition, the Relative level in the test on HepG2 [11] is on record as 6. The compound further yielded a concentration for a half-maximal effect (EC50) in the test on HepG2 [1] of 1.4 µM. In the test on HepG2 [2], this compound came in with an EC90 of 8.4 µM. The IC50 with HepG2 [3] worked out at 252 µM. The Ratio in test [4] was found to be 30.
